Results as given in patent publication EP4215195A1, “LANATOSIDE C, CLOPIDOGREL, AND R406 IN TREATMENT OF CVD-CLONAL HEMATOPOIESIS OF INDETERMINATE POTENTIAL (CVD-CHIP)” (Genome Biologics UG, priority 2022, dated 2023).

Legend:
[1] = test system: CHIP (siTET2) myeloid cells; assay: Synthetic lethality screen of a CVD drug library, alamarBlue Cell Viability assay, CHIP cells; assay type: cell-based; conditions: THP-1 cells with TET2 siRNA knockdown; drugs 100 µM, 48 hours; compared with Vehicle
Protocol: (§1) The established disease model can subsequently be used for drug screening. Thus, a synthetic lethality screening of a CVD (cardiovascular disease) drug library was performed, treating CHIP (siTET2) or healthy (siScr) myeloid cells.
(§2) THP-1 cells were purchased from DSMZ (ACC 16) and maintained in RPMI-1640 (Gibco) +10% Fetal Calf Serum, 1% Penicillin/Streptomycin, 1% Glutamine, 0.05 mM 2-Mercaptoethanol.
(§3) THP-1 cells were differentiated from monocytes to macrophages by supplementing the media 100 ng/mL PMA and culturing for 48 h, and then in PMA-free media for another 24 h. For routine culturing, cells were maintained at 37°C, 5% CO2, 20% O2. In cardiopathologic culturing, both THP1 cells and organoids were maintained hypoxic conditions at 37°C, 5% CO2, 1% O2.
(§4) Transfection of THP-1 cells with siRNA purchased as ON-TARGETplus pools from Horizon Discovery (TET2 siRNA pool containing: ACAAGAAAGUAGAGGGUAU (SEQ ID NO 001), ACACCUAGUUUCAGAGAAU (SEQ ID NO 002), CCUCAGAAUAAUUGUGUGA (SEQ ID NO 003), CAGCAAAGGUACUUGAUAC (SEQ ID NO 004); Control siRNA pool containing: UGGUUUACAUGUUGUGUGA (SEQ ID NO 005), UGGUUUACAUGUUUUCCUA (SEQ ID NO 006)).
(§5) Working solution of 50µM siRNA was prepared in siRNA Buffer (ThermoFisher). 2 µL of 50µM siRNA were mixed with 500 µL OptiMEM and 6.25µL LTX Reagent PLUS (ThermoFisher) and incubated at room temperature (RT) for 15 min. 6.25 µL Lipofectamine LTX was added, mixed, and incubated for 30 min at RT. 500 µL were then added to the target culture and the culture was incubated at 37°C, 5% CO2. Passaging and/or media change was performed after 24 h.
(§6) THP-1 monocytes and macrophages were cocultured overnight (18 h) with siRNA. They were then washed with PBS and used for either TET2 knockdown quality control (as described below) or for the drug screening. For the screening, cells were transferred from tissue culture flasks to 384-well plates. Drugs were added to a final concentration of 100 µM and incubated for 48 hours. An alamarBlue Cell Viability assay (Invitrogen) with a 4 h incubation was performed according to the manufacturer's instructions.

[2] = test system: healthy (siScr) myeloid cells; assay: Synthetic lethality screen of a CVD drug library, alamarBlue Cell Viability assay, healthy cells; assay type: cell-based; conditions: THP-1 cells with control siRNA; drugs 100 µM, 48 hours; compared with Vehicle
Protocol: as §1, §2, §3, §4, §5, §6

[3] = test system: CHIP (siTET2) myeloid cells; assay: Trypan Blue Assay (cell death), CHIP cells; assay type: cell-based
[4] = test system: healthy (siScr) myeloid cells; assay: Trypan Blue Assay (cell death), healthy cells; assay type: cell-based
[5] = test system: CHIP (siTET2) myeloid cells; assay: Cl. Caspase Assay (apoptosis), CHIP cells; assay type: cell-based
[6] = test system: healthy (siScr) myeloid cells; assay: Cl. Caspase Assay (apoptosis), healthy cells; assay type: cell-based
[7] = test system: CHIP-infiltrated cardiac organoids (siTET2); assay: cTNT assay (Human Cardiac Troponin T ELISA) in organoid coculture; assay type: cell-based; conditions: siTET2 organoids treated vs Vehicle; healthy = siScr; 3 days of culturing
Protocol: The cTNT assay was performed using the Human Cardiac Troponin T ELISA® Kit (ab223860, Abcam) following the manufacturer's instructions.

[8] = test system: CHIP-infiltrated cardiac organoids (siTET2); assay: Cardiomyocyte apoptosis in cardiac organoids (Cleaved Caspase staining colocalized with α-Actinin); assay type: cell-based, human; conditions: siTET2 organoids treated vs Vehicle; healthy = siScr
Text: To assess the CM death, the inventors used cleaved caspase staining which labels apoptotic cells. […] The increase in CM death in the TET2 KD group is further verified by an increase in cardiac troponin T (cTNT), a prognostic cardiac damage clinical biomarker (* p <0.05).

[9] = test system: cardiac organoids infiltrated with CHIP myeloid cells; assay: Gene expression (RNA levels of markers) in cardiac organoids infiltrated with CHIP myeloid cells; assay type: cell-based, human; conditions: treated vs Vehicle; normalized to healthy state = 1.0
Protocol: (§7) Macrophages were differentiated from THP1 monocytes, then treated with siRNAs (18 h incubation), washed, and labeled with Qtracker™ 655 Cell Labeling Kit (ThermoFisher) for 1 h according to the manufacturer's instructions, washed with PBS, and dissociated with 0.05% trypsin. Macrophages were then added to organoids and cultured at 37°C, 5% CO2, and 1%O2. Cultures were maintained in 96-well U-bottom plates.
(§8) Immunostaining, RNA extraction and cTNT assays were run after 3 days of culturing.

[10] = test system: CHIP-infiltrated cardiac organoids (siTET2); assay: Myeloid cell infiltration into cardiac organoids (Qtracker staining, coculture); conditions: siTET2 organoids treated vs Vehicle; baseline siScr Vehicle; hypoxic coculture, 3 days
Protocol: These MCs were utilized in the coculturing system with self-organized human cardiac organoids, where they were tracked using a Qtracker stain.
as §7, §8
After an overnight PFA fixation, the organoids were washed with PBS, then treated with 1% TritonX-100 (in PBS) for 45 minutes. Afterwards, they are incubated with PBS for 10 minutes for washing. 5% horse serum (in PBS) is added to block and incubated for 45 minutes (RT) Primary antibody in 2% horse serum + 0.0002% TritonX-100 was added and the samples were incubated at 4°C overnight. Primary antibodies: Anti-Sarcomeric-actinin (Ab68167, anti-human), Anti-Cleaved Caspase-3 (Ab32042, anti-human). Samples were washed with PBS + 0.002% TritonX-100 6x10min. Secondary antibodies and additional stains were added and incubated for 4h at RT: AlexaFlour 488 (Invitrogen, A11070), AlexaFlour 555 (Invitrogen, A21425), DAPI, Qtracker labelling 655 (Invitrogen, Q25021 MP). Samples were washed by incubating with PBS+0.002%TritonX-100 for 2-3 hours at RT), and mounted on Superfrost Plus Adhesion Slides (ThermoFisher) sing transparent polish to seal the slide sides to the coverslips (Roth). Samples were imaged using SP8 Lightning Leica Confocal Microscope, using a 40x objective (for a total of 800x and 300x magnification with zoom factors and eye lenses).

Molecule	viability of CHIP myeloid cells (siTET2) [1]	viability of healthy (siScr) cells [2]	levels of cell death of CHIP myeloid cells (Trypan Blue Assay) [3]	cell death of healthy (siScr) cells (Trypan Blue Assay) [4]	apoptosis of CHIP myeloid cells (CI. Caspase Assay) [5]	apoptosis of healthy (siScr) cells (CI. Caspase Assay) [6]	levels of the prognostic marker cTNT [7]	cardiomyocyte apoptosis levels (areas of Cleaved Caspase staining) [8]	RNA levels of myeloid, inflammatory, heart failure and fibrotic markers [9]	infiltration of myeloid cells into organoids (Qtracker-stained area) [10]
COC(=O)[C@H](c1ccccc1Cl)N1CCc2sccc2C1 [Clopidogrel, clopidogrel]	selectively inhibit the viability of CHIP myeloid cells (siTET2)	without compromising the viability of healthy (siScr) cells	increase the levels of cell death of CHIP myeloid cells	without inflicting harm on the healthy (siScr) cells	increase the levels of cell death of CHIP myeloid cells (Trypan Blue Assay) and apoptosis in particular	without inflicting harm on the healthy (siScr) cells	decreased back to healthy levels	decreased areas of Cleaved Caspase staining back towards healthy levels	rescued upon treatment with the 3 aforementioned drugs back down towards healthy levels (≤1.0)	decreased levels of Qtracker-stained area upon treatment of siTET2 cells back to the baseline healthy levels
CC(=O)O[C@H]1C[C@H](O[C@H]2[C@@H](O)C[C@H](O[C@H]3[C@@H](O)C[C@H](O[C@H]4CC[C@@]5(C)[C@H](CC[C@@H]6[C@@H]5C[C@@H](O)[C@]5(C)[C@@H](C7=CC(=O)OC7)CC[C@]65O)C4)O[C@@H]3C)O[C@@H]2C)O[C@H](C)[C@H]1O[C@@H]1O[C@H](CO)[C@@H](O)[C@H](O)[C@H]1O [Lanatoside C, lanatoside C]	selectively inhibit the viability of CHIP myeloid cells (siTET2)	without compromising the viability of healthy (siScr) cells	increase the levels of cell death of CHIP myeloid cells	without inflicting harm on the healthy (siScr) cells	increase the levels of cell death of CHIP myeloid cells (Trypan Blue Assay) and apoptosis in particular	without inflicting harm on the healthy (siScr) cells	decreased back to healthy levels	decreased areas of Cleaved Caspase staining back towards healthy levels	rescued upon treatment with the 3 aforementioned drugs back down towards healthy levels (≤1.0)	decreased levels of Qtracker-stained area upon treatment of siTET2 cells back to the baseline healthy levels
CCCCC[C@H](O)CC[C@@H]1[C@H]2Cc3cccc(OCC(=O)O)c3C[C@H]2C[C@H]1O [Treprostinil Sodium]		also decrease the viability of healthy cells								
COc1cc(Nc2ncc(F)c(Nc3ccc4c(n3)NC(=O)C(C)(C)O4)n2)cc(OC)c1OC [R406]	selectively inhibit the viability of CHIP myeloid cells (siTET2)	without compromising the viability of healthy (siScr) cells	increase the levels of cell death of CHIP myeloid cells	without inflicting harm on the healthy (siScr) cells	increase the levels of cell death of CHIP myeloid cells (Trypan Blue Assay) and apoptosis in particular	without inflicting harm on the healthy (siScr) cells	decreased back to healthy levels	decreased areas of Cleaved Caspase staining back towards healthy levels	rescued upon treatment with the 3 aforementioned drugs back down towards healthy levels (≤1.0)	decreased levels of Qtracker-stained area upon treatment of siTET2 cells back to the baseline healthy levels
Escin	only Ginsenoside Rb1 was found to do so significantly									
CC(=O)Oc1cc(C(F)(F)F)ccc1C(=O)O [Triflusal]		also decrease the viability of healthy cells								
C[C@H]1O[C@@H](O[C@H]2[C@@H](O)C[C@H](O[C@H]3[C@@H](O)C[C@H](O[C@H]4CC[C@@]5(C)[C@H](CC[C@@H]6[C@@H]5CC[C@]5(C)[C@@H](C7=CC(=O)OC7)CC[C@]65O)C4)O[C@@H]3C)O[C@@H]2C)C[C@H](O)[C@@H]1O [Digitoxin]	only Ginsenoside Rb1 was found to do so significantly									
CCCSc1nc(N[C@@H]2C[C@H]2c2ccc(F)c(F)c2)c2nnn([C@@H]3C[C@H](OCCO)[C@@H](O)[C@H]3O)c2n1 [Ticagrelor]		also decrease the viability of healthy cells								
CC(C)=CCC[C@](C)(O[C@@H]1O[C@H](CO[C@@H]2O[C@H](CO)[C@@H](O)[C@H](O)[C@H]2O)[C@@H](O)[C@H](O)[C@H]1O)[C@H]1CC[C@]2(C)[C@@H]1[C@H](O)C[C@@H]1[C@@]3(C)CC[C@H](O[C@@H]4O[C@H](CO)[C@@H](O)[C@H](O)[C@H]4O[C@@H]4O[C@H](CO)[C@@H](O)[C@H](O)[C@H]4O)C(C)(C)[C@@H]3CC[C@]12C [Ginsenoside Rb1]	found to do so significantly	also decreases the viability of healthy cells								
